Laboratory results reported in publication PMC8869097, “Benzothiazole Derivatives as Multifunctional Antioxidant Agents for Skin Damage: Structure–Activity Relationship of a Scaffold Bearing a Five-Membered Ring System” (Antioxidants, 2022).

Columns and labels:
[1] = Ferric Reducing Antioxidant Power assay (FRAP); settings: 593 nm
Description: The FRAP assay is a widely used method based on a colorimetric reaction linked to a redox and on the use of antioxidants as reducing agents.
The test evaluates the capacity of a sample to reduce ferric to ferrous ions in the presence of TPTZ (2,4,6-tripyridyl-s-triazine). The reaction mixture consists of 0.1 M acetate buffer pH 3.6, 10 mmol/L TPTZ in 40 mmol/HCl, and 20 mmol/L ferric chloride in the ratio 10/1/1 (v:v:v) as described by Benzie et al.. A total of 1.9 mL of reagent was added to 0.1 mL of suitably diluted sample or solvent. The absorbance values were measured using the UV-VIS spectrophotometer at 593 nm and expressed as µmol TE/g compound.

[2] = test system: Microsporum canis; test: Antidermatophyte activity, plaque growth inhibition; type: cell-based, Microsporum canis CBS 131,110; settings: 100 μg/mL, SDA, read-out: % Inhibition Growth M. canis
Description: (§1) The dermatophytes used in this study were Epidermophyton floccosum var. floccosum (Netherlands) CBS 358.93 strain, Trichophyton tonsurans (Netherlands) CBS 483.76 strain, Trichophyton mentagrophytes (Netherlands) CBS 160.66 strain, Microsporum canis (Iran) CBS 131,110 strain, and Microsporum gypseum (Iran) CBS 130,948 strain. All dermatophytes were maintained at 4 °C as agar slants on SDA. Candida albicans (ATCC 10231) was maintained at 4 °C on SDA plate.
(§2) The in vitro antifungal activity against the five selected dermatophytes was evaluated, as previously described, using the plaque growth inhibition method. All compounds were evaluated at the final concentration of 100 µg/mL. The percentages of growth inhibition according to Equation (5) were calculated as the average of three different experiments. I = [(C − T)/C] × 100%,(5) where I is the percentage value of growth inhibition, C is the measure of the diameter of the control circular mycelial inoculum (mm) and T is the extended diameter of the treated mycelial inoculum (mm).
(§3) All synthesized benzothiazole derivatives were evaluated to evaluate their in vitro antifungal activity against the five pathogenic dermatophytes that cause the most common dermatomycoses: Microsporum gypseum, Microsporum canis, Trichophyton mentagrophytes, Trichophyton tonsurans and Epidermophyton floccosum. All compounds were tested at a concentration of 100 µg/mL in DMSO, to evaluate the ability to inhibit the growth of dermatophyte cultures in Sabouraud Dextrose Agar (SDA). Briefly, room temperature incubation was performed and dermatophyte inhibition assessed by measuring the colony diameter at each disc for 7 days. The results are shown in Table 3 and were determined as the average of three different experiments.

[3] = test system: Trichophyton mentagrophytes; test: as above; type: cell-based, Trichophyton mentagrophytes CBS 160.66; settings: 100 μg/mL, SDA, read-out: % Inhibition Growth T. mentagrophytes
Description: as §1, §2, §3

[4] = test system: Trichophyton tonsurans; test: as above; type: cell-based, Trichophyton tonsurans CBS 483.76; settings: 100 μg/mL, SDA, read-out: % Inhibition Growth T. tonsurans
Description: as §1, §2, §3

[5] = test system: SK-Mel 5 cells; test: Antiproliferative activity; type: cell-based; settings: Homo sapiens, read-out: IC50 SK-Mel5
Description: (§4) A stock solution of the compounds (20 mM in DMSO) was prepared and stored at −18 °C. Then, the compounds were diluted in the cell culture medium and tested starting with the 100 µM concentration as the upper limit. The application of equation (6) allowed to obtain the values of IC50. C1 − [50 − N1%/N2% − N1%] − (C1 − C2),(6) where C1 is the concentration of the compound which inhibits cell proliferation by more than 50%; C2 is the concentration of the compound which inhibits cell proliferation below 50%; N1% represents the number of cells (expressed as a percentage of control without compound) obtained in the presence of C1 and N2% represents the number of cells (as a percentage of control without compound) obtained in the presence of C2.
(§5) Finally, the compounds of this series of benzothiazole derivatives were tested to evaluate their antiproliferative activity in vitro against human T-cell leukemia cell line (CEM), human cervical carcinoma cells (HeLa), human pancreas cancer cells (Mia Paca-2) and human melanoma cells (SK-Mel 5). Non-cancerous HEK293T cells (Normal Kidney Epithelial Cells) were chosen as a control for cytotoxicity and/or selectivity. The results obtained have been summarized in Table 5 (data shown only for the active compounds) and are expressed as IC50 values in μM. The selectivity index (SI) was also reported, determined by comparing the values of IC50 (μM) obtained on healthy cells (HEK 293) with that obtained on tumor cells (CEM, HeLa, Mia-Paca-2 and SK- Mel 5) (Table 5).

[6] = test system: HEK293T cells; test: Cytotoxicity on non-cancerous control cells; type: cell-based; settings: Homo sapiens, HEK-293T, read-out: IC50 Hek293
Description: as §4, §5

[7] = UV spectra of compounds in solution (filtering parameters); type: physicochemical
Description: The evaluation of the sun protection parameters has been carried out using a UV-Vis spectrophotometer. The absorbance of the solutions of the test compounds dissolved in the different solvents (DMSO, MeOH, DMSO–H2O 4:6, DMSO–H2O 6:4, HE) at a concentration of 0.0015 (±0.000005)% was recorded in the range 290–400 nm using a 1 cm quartz cell at 1 nm intervals. It was decided to evaluate the profile of the compounds in the Peg-7 Glyceryl Cocoate (HE) oil, which is the emollient of choice to solubilize the compounds in a formulation suitable for in vivo analysis. Wavelength absorbance is in relationship with transmittance (T (λ)) from Equation (2) A (λ) = […](2) where T (λ) is the fraction of incident irradiance that is transmitted through a sample.
The three parameters were determined, respectively, in DMSO and in methanol in order to perform a comparison (Table S1).
Since DMSO is a solvent with characteristics very close to those of an oil, the analysis was also carried out in solutions that mimic the possible conditions of a formulation. For this reason, the 4:6 and 6:4 proportions of DMSO–H2O were chosen to evaluate the choice of an oil-in-water or water-in-oil emulsion.

## c1c[nH]c(-c2nc3ccccc3s2)c1 [Compound 8a, 2-(1H-Pyrrol-2-Yl)benzothiazole]
[1]
  FRAP: 329.85 ± 0.94 μmolTE/g
[2]
  inhibition at 100 µg/mL: 25 ± 1.61%
[3]
  inhibition at 100 µg/mL: 10 ± 0.51%
[4]
  inhibition at 100 µg/mL: 7.46 ± 0.05%
[5]
  IC50: 41 ± 4 µM
[6]
  IC50: 68 ± 14 µM
[7]; DMSO
  A (absorbance): 2.360
  ε (molar extinction coefficient): 29500.00
  λmax: 333.40 nm
[7]; DMSO-H2O 4:6
  A (absorbance): 2.35
  ε (molar extinction coefficient): 31333.333
  λmax: 333.70 nm
[7]; DMSO-H2O 6:4
  A (absorbance): 1.51
  ε (molar extinction coefficient): 23239.769
  λmax: 334.20 nm
[7]; HE (Peg-7 Glyceryl Cocoate)
  A (absorbance): 0.79
  ε (molar extinction coefficient): 12153.846
  λmax: 332.80 nm
[7]; MeOH
  A (absorbance): 1.540
  ε (molar extinction coefficient): 23692.31
  λmax: 329.40 nm
other
  melting point: 132 °C

## c1coc(-c2nc3ccccc3s2)c1 [Compound 9a, 2-(Furan-2-Yl)benzothiazole]
[1]
  FRAP: 72.34 ± 3.42 μmolTE/g
[2]
  inhibition at 100 µg/mL: 64 ± 0.72%
[3]
  inhibition at 100 µg/mL: 54 ± 0.99%
[4]
  inhibition at 100 µg/mL: 57.9 ± 0.76%
[5]
  IC50: 98 ± 2 µM
[6]
  IC50: > 100 µM
[7]; DMSO
  A (absorbance): 1.620
  ε (molar extinction coefficient): 21715.82
  λmax: 322.10 nm
[7]; DMSO-H2O 4:6
  A (absorbance): 2.43
  ε (molar extinction coefficient): 34863.702
  λmax: 322.77 nm
[7]; DMSO-H2O 6:4
  A (absorbance): 1.95
  λmax: 323.00 nm
[7]; HE (Peg-7 Glyceryl Cocoate)
  A (absorbance): 1.18
  ε (molar extinction coefficient): 15817.594
  λmax: 320.70 nm
[7]; MeOH
  A (absorbance): 2.750
  ε (molar extinction coefficient): 32505.91
  λmax: 316.40 nm
other
  melting point: 103 °C

## c1csc(-c2nc3ccccc3s2)c1 [Compound 10a, 2-(Thiophen-2-Yl)benzothiazole]
[1]
  FRAP: 143.13 ± 3.84 μmolTE/g
[2]
  inhibition at 100 µg/mL: 66 ± 0.82%
[3]
  inhibition at 100 µg/mL: 61.95 ± 0.44%
[4]
  inhibition at 100 µg/mL: 64.5 ± 0.92%
[5]
  IC50: 50 ± 5 µM
[6]
  IC50: > 100 µM
[7]; DMSO
  A (absorbance): 0.880
  ε (molar extinction coefficient): 12735.17
  λmax: 321.80 nm
[7]; DMSO-H2O 4:6
  A (absorbance): 0.75
  ε (molar extinction coefficient): 12520.868
  λmax: 322.67 nm
[7]; DMSO-H2O 6:4
  A (absorbance): 1.29
  ε (molar extinction coefficient): 21535.893
  λmax: 323.00 nm
[7]; HE (Peg-7 Glyceryl Cocoate)
  A (absorbance): 1.32
  ε (molar extinction coefficient): 14316.703
  λmax: 320.30 nm
[7]; MeOH
  A (absorbance): 0.760
  ε (molar extinction coefficient): 9706.26
  λmax: 319.50 nm
other
  melting point: 99 °C

## NS(=O)(=O)c1ccc2nc(-c3cccs3)sc2c1 [Compound 10c, 2-(Thiophen-2-Yl)benzothiazole-6-Sulfonamide]
[1]
  FRAP: 60.90 ± 1.87 μmolTE/g
[2]
  inhibition at 100 µg/mL: 14.3 ± 0.7%
[3]
  inhibition at 100 µg/mL: 10.92 ± 0.09%
[4]
  inhibition at 100 µg/mL: 6.35 ± 0.02%
[5]
  IC50: > 100 µM
[6]
  IC50: > 100 µM
[7]; DMSO
  A (absorbance): 0.890
  ε (molar extinction coefficient): 20273.35
  λmax: 336.50 nm
[7]; MeOH
  A (absorbance): 0.430
  ε (molar extinction coefficient): 9704.99
  λmax: 333.17 nm
other
  melting point: > 250 °C

## c1c[nH]c(-c2nc3ccccc3[nH]2)c1 [Lead 10, reference compound]
[1]
  FRAP: 1085.57 ± 0.88 μmolTE/g
[2]
  inhibition at 100 µg/mL: 96.8 ± 3.56%
[3]
  inhibition at 100 µg/mL: 96.3 ± 2.42%
[4]
  inhibition at 100 µg/mL: 96.97 ± 0.62%
[5]
  IC50: 9.7 ± 1.7 µM
[6]
  IC50: 31 ± 3 µM
